Laboratory results: patent US11072592B2, “Small molecules that enable cartilage rejuvenation” (The Regents of the University of California, priority 2015, dated 2021)
“Also recorded” adds a separate entry of the source.

How the values were obtained:
Format in all cases: cell-based
[1] = tested on: pSTAT3 and MYC; experiment: Western blot of pSTAT3 and MYC in adult pig articular chondrocytes; conditions: for levels of MYC / levels of pSTAT3: adult pig articular chondrocytes, treated vs untreated, relative to histone H3
From the text: (§1) Only early passages of chondrocytes (passage 0-2) were used for experimentation to avoid de-differentiation and loss of cartilage phenotype (Wu et al., 2014). Cartilage explants were made using 1, 2 or 8 mm biopsy punch and wet weight of each explant determined prior to experimentation. For cell isolation cartilage tissue was digested as described previously (Wu et al., 2015). Postnatal paraffin embedded joint and growth plate specimens were kindly donated by Dr Marcel Karperien from the University of Twente (Netherlands) and Dr Nick Bernthal from University of California Los Angeles. All donated material was anonymous and carried no personal identifiers. Cell culture reagents were purchased from Life Technologies, Inc. (Grand Island, N.Y.). Growth factors LIF, OSM, IL-6, TNF-α, IL-1β were purchased from Life Technologies, Inc (Grand Island, N.Y.). STATTIC, 10058-F4, SCl44 hydrochloride, and CP-690550 were purchased from Sigma Aldrich (St. Louis, Mo.). RCGD 423 (N-(4-Bromophenyl)-4-phenyl-1,3-thiazol-2-amine) was synthesized and provided by MolPort (Riga, Latvia). Fetal, adult and pig chondrocytes were cultured in DMEM F12 medium containing 10% (vol/vol) fetal bovine serum and 1% Penicillin-Streptomycin (vol/vol) at 37° C. in a humidified atmosphere of 95% aid and 5% CO2. Media was replenished with DMEM F12 medium containing 1% (vol/vol) fetal bovine serum and 1% Penicillin-Streptomycin (vol/vol) once treatments were added. For 3-dimensional (3D) cell cultures adult human articular chondrocytes were incubated with or without RCGD 423 using 10% solution of Mebiol® hydrogel from Cosmo Bio (Carlsbad, Calif.) in X-vivo 15 serum free medium from Lonza (Walkersville, Md.) as described previously (Wu et al., 2014).
(§2) Treated and non-treated ells were lysed in RIPA Lysis and Extraction Buffer (Pierce, Rockford, Ill.) containing protease inhibitors (Pierce) followed by sonication with a 15-second pulse at a power output of 2 using the VirSonic 100 (SP Industries Company, Warminster, Pa.). Protein concentrations were determined by BCA protein assay (Pierce). Proteins were resolved with SDS-PAGE utilizing 4-15% Mini-PROTEAN TGX Precast Gels and transferred to Trans-Blot Turbo Transfer Packs with a 0.2-μm pore-size nitrocellulose membrane. The SDS-PAGE running buffer, 4-15% Mini-PROTEAN TGX Precast Gels, Trans-Blot Turbo Transfer Packs with a 0.2-μm pore-size nitrocellulose membrane were purchased from Biorad (Hercules, Calif.). Nitrocellulose membranes were blocked in 5% nonfat milk in 0.05% (v/v) Tween 20 (PBST) (Corning, Manassas, Va.). Membranes were then incubated with primary antibodies phospho-STAT3 (#9131), MYC (#5605), NF-κB p65 (#D14E12), pAKT (#9272) Histone 3 (#9715) from Cell Signaling, (Danvers, Mass.); MEK1/2 (ab70613) and p38 (ab795) from Abcam (Cambridge, Mass.) overnight. After washing in PBS containing 0.05% (v/v) Tween 20 (PBST), membranes were incubated with Goat anti-Rabbit IgG (H+L) Secondary Antibody (Thermo Scientific Rockford, Ill.). After washing, membranes were developed with the Clarity Western ECL Blotting Substrate (Hercules, Calif.).

[2] = tested on: pSTAT3 and MYC; experiment: Western blot of pSTAT3 and MYC in adult human articular chondrocytes; conditions: for levels of MYC / levels of pSTAT3: adult human articular cartilage/chondrocytes, treated vs untreated, relative to histone H3
From the text: as §1, §2

[3] = tested on: adult human articular chondrocytes; experiment: Survival / apoptosis (Annexin V) of adult articular chondrocytes; conditions: for chondrocytes survival in adult explants: LIF 50 ng/mL, CRM-423 10 uM
Protocol: FIGS. 28A-28I. Small molecule-mediated activation of a fetal-like molecular and functional phenotype in adult articular cartilage. (FIG. 28A) Adult human articular chondrocytes were incubated with or without RCGD 423 and levels of MYC and pSTAT3 were quantified relative to histone H3. (FIG. 28B) Levels of MYC and pSTAT3 protein were measured in pig adult articular chondrocytes to determine the effects of RCGD 423 in a dose- and time-dependent manner; histone H3 was used as a loading control. (FIG. 28C) Migration of adult human articular chondrocytes in a Transwell® assay was assessed in the presence and absence of RCGD 423. (FIG. 28D) Adult human articular chondrocytes were incubated with or without RCGD 423 in hydrogel for 24 hours and then apoptotic cells were quantitated via flow cytometry for Annexin V. (FIG. 28E) Single human adult articular chondrocytes were cultured for 5 weeks with or without stimulation with RCGD 423. (FIG. 28F) Proliferation in explants of adult pig articular cartilage in the absence or presence of RCGD 423 as shown by EdU incorporation. Explants of adult pig articular cartilage were incubated with EdU in the presence or absence of LIF to detect proliferating cells. Scale bars represent 25 μm. (FIG. 28G) Metabolic activity of human adult articular chondrocytes (ECAR and OCR) was assessed in the presence or absence of RCGD 423; the response in these parameters to stimulation with LIF is shown for comparison. […]
Only early passages of chondrocytes (passage 0-2) were used for experimentation to avoid de-differentiation and loss of cartilage phenotype (Wu et al., 2014). Cartilage explants were made using 1, 2 or 8 mm biopsy punch and wet weight of each explant determined prior to experimentation. […]
TdT-mediated dUTP nick-end labeling (TUNEL) or EdU assays were performed by using in situ cell death detection kit (TUNEL, Roche Diagnostics GmbH, Germany) or Click-iT® Assay Kit obtained from Invitrogen (Carlsbad, Calif.), respectively, as described in the manufacturer's protocol. […] After staining sections were analyzed using fluorescent microscopy. […]

[4] = pig adult articular chondrocytes, 1 μM
[5] = 48 hours after withdrawal (data not shown)
[6] = human adult articular chondrocytes, 1 μM

| Molecule | levels of MYC [1] | levels of pSTAT3 [1] | levels of c-MYC [1, 4] | levels of p-STAT3 [1, 4] | specificity and selectivity of effect for p-STAT3 and c-MYC [2] | protein level of c-MYC after withdrawal [2, 5] | protein level of p-STAT-3 after withdrawal [2, 5] | levels of MYC [2] | levels of pSTAT3 [2] | levels of c-MYC [2, 6] | levels of p-STAT3 [2, 6] | chondrocytes survival in adult explants [3] | apoptosis (Annexin V) ([3]; adult human articular chondrocytes in hydrogel, 24 hours) |
| --- | --- | --- | --- | --- | --- | --- | --- | --- | --- | --- | --- | --- | --- |
| Brc1ccc(Nc2nc(-c3ccccc3)cs2)cc1 [RCGD 423, N-(4-Bromophenyl)-4-phenyl-1,3-thiazol-2-amine] | strong increases | strong increases | elevated | elevated | highly specific and selective | decreased | decreased | robustly increased | robustly increased | elevated | elevated | increase | decreased |
| LIF: interleukin 6 (IL-6)-class cytokine | increase | increase |  |  |  |  |  | large increases; also recorded: robustly increased | large increases; also recorded: robustly increased |  |  | increase; also recorded: promoted survival |  |
